Assays:
Type in all cases: cell-based
[1] = test system: CMV promoter activity in transformed (adenovirus) cells; assay: CMV promoter assay (gene transcription and translation, cytotoxic activity); conditions: read-out: IC50 (μM), CMV promoter assay
Source text: This example illustrates data regarding proliferative activity of various inventive compounds for inducting CMV promoter activity. The CMV promoter assay measures gene transcription and translation activity wherein any active compounds will nave cytotoxic activity to inhibit cellular protein synthesis machinery in transformed (adenovirus) cells.

[2] = test system: TNF release from monocytes in whole blood; assay: ex vivo human TNF model, LPS-mediated TNF release in whole blood; conditions: FIG. 14
Procedure: (§1) This model adds LPS to whole blood (normal human volunteers) to trigger a dose-dependent synthesis and extracellular release of TNF according to Desch et al. (Lymphokine Res. 8:141, 1989). The ex vivo model examines whether LPS-mediated release of TNF from monocytes in whole blood can be block by an inventive compound.
An ex vivo human sepsis model is described in Desch et al., Lymphokine Res. 8:141, 1989 and in Ooi et al., J. Exp. Med. 174:649, 1991. Briefly, whole blood from humans is incubated with LPS (endotoxin). TNF released from cells (mostly from monocytes) is measured. The inventive compounds lower TNF levels as compared with untreated controls in this model.
as §1, with “This example illustrates a comparative experiment comparing CT1595, CT1529 and CT2519 in an ex vivo human TNF model described herein. This assay is a predictive model for treatment and prevention of septic shock and sepsis syndrome. This” for “This”

[3] = test system: transformed cells (Ras 3T3) and normal 3T3 cells; assay: cytotoxicity in transformed and normal 3T3 cells
Procedure: A similar experiment is shown in FIG. 9 for five inventive compounds (see Table 1 […] for chemical names) showing differential cytotoxicity for the same normal and transformed cells.
Each inventive compound is investigated for cytotoxicity to determine appropriate doses for biological activity assays and to prevent cytotoxic reactions in in vitro assays when characterizing activity. Cells (e.g., NIH-3T3, Ras transformed 3T3 cells, malignant melanoma LD2 cells, etc.) are added to microtiter plates and drug is added about two days after plating. Cell viability is determined using a fluorescent viability stain (e.g., 2',7'-bis-(2-carboroxyethyl)-5-(and -6)-carboxyfluorescein acetoxymethyl ester, BCECF excitation 488 nm and emission 525 nm) 24, 48 or 72 hours after addition of the drug.
This example illustrates a comparison of cytotoxicity determinations for CT1595 in transformed cells (Ras 3T3) and in normal 3T3 cells at drug doses of 1, 10 and 100 μM in in vitro cell culture conditions (FIG. 8). […] A similar experiment is shown in FIG. 9 for five inventive compounds (see Table 1 above for chemical names) showing differential cytotoxicity for the same normal and transformed cells.

[4] = test system: PBMC (peripheral blood mononuclear cells); assay: two-way mixed lymphocyte reaction (MLR), immune suppression; conditions: Homo sapiens, 144 h, allogeneic stimulation of PBMC, 6 days
Source text: Various in vitro assays can be used to measure effects of the inventive compounds to module immune activity and have antitumor activity using a variety of cellular types. For example, a mixed lymphocyte reaction (MLR) provides a valuable screening tool to determine biological activity of each inventive compound. In the MLR, PBMCs (peripheral blood mononuclear cells) are obtained by drawing whole blood from healthy volunteers in a heparinized container and diluted with an equal volume of hanks balanced salt solution (HBSS). This mixture is layered on a sucrose density gradient, such as a Ficoll-Hypaque® gradient (specific gravity 1.08), and centrifuged at 1000× g for 25 minutes at room temperature or cooler. PBMC are obtained from a band at a plasma-Ficoll interface, separated and washed at least twice in a saline solution, such as HBSS. Contaminating red cells are lysed, such as by ACK lysis for 10 rain at 37° C., and the PBMCs are washed twice in HBSS. The pellet of purified PBMCs is resuspended in complete medium, such as RPMI 1640 plus 20% human inactivated serum. Proliferative response of PBMC to allogeneic stimulation is determined in a two-way MLR performed in a 96-well microtiter plate. […] At the conclusion of the incubation tritiated thymidine is added (for example, 1 μCi/well of 40 to 60 Ci/mmole) and proliferation determined by liquid scintillation counting. […]

Cn1cnc2c1c(=O)n(CCCCC(=O)CCl)c(=O)n2C [CT1595, 1-(6-chloro-5-oxohexyl)-3,7-dimethylxanthine]
IC50 [1]: 20 µM | block of LPS-mediated TNF release [2]: could block TNF release in a dose-dependent fashion | differential cytotoxicity, transformed vs normal 3T3 cells ([3]; FIG. 8, 1, 10 and 100 μM): more cytotoxic for the cancer cell than the normal cell | cytotoxic activity, normal and transformed 3T3 cells ([3]; FIG. 9, five compounds): significant cytotoxic activity | IC50 [4]: < 10 µM

Source: patent US5670506A, “Halogen, isothiocyanate or azide substituted xanthines” (Cell Therapeutics, Inc., priority 1993, dated 1997)
